Calls of active or inactive are those of the source.
Columns and labels:
[1] = HGIII-sPLA2 enzyme inhibition potency – biochemical, QFRET, IC50, dose response (AID 743457);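 also: green fluorescence rise as the enzyme cleaves BODIPY PC-A2 in liposomes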
fMet-Leu-Phe receptor = target: T1, fMet-Leu-Phe receptor (Homo sapiens, UniProt P21462); assay: formyl peptide receptor binders – dose response (AID 519); assay type: functional
T1 sequence (P21462 whole entry): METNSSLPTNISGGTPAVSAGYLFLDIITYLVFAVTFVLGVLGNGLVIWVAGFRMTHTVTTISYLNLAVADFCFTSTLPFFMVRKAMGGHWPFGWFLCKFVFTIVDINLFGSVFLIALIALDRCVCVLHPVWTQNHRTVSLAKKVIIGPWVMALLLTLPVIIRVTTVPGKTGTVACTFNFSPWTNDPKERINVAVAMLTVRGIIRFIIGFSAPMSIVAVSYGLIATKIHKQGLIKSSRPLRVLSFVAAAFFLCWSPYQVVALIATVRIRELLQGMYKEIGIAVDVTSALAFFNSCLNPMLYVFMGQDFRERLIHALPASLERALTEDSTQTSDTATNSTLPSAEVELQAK

[2] = target: T2, Fructose-bisphosphate aldolase (Mycobacterium tuberculosis, UniProt P9WQA3); assay: Fluorescence-based biochemical high throughput dose response assay for inhibitors of the fructose-bisphosphate aldolase (FBA) of M. tuberculosis.; assay type: functional
T2 sequence (P9WQA3 whole entry): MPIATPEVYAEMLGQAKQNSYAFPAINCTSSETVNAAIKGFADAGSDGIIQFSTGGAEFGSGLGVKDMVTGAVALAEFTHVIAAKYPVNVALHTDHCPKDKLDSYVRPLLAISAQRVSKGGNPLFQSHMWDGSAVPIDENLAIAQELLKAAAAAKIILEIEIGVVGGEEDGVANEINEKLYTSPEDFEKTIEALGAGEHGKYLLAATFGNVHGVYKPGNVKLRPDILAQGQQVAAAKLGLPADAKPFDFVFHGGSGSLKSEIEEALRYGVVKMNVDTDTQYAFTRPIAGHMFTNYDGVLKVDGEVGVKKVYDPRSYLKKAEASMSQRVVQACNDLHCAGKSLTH

[3] = target: T3, Replicative DNA helicase DnaB (Mycobacterium tuberculosis, UniProt P9WMR3); assay: DnaB intein splicing inhibitors, dose response, biochemical, cell-free fluorescence (AID 449749); assay type: functional
T3 sequence (P9WMR3 whole entry): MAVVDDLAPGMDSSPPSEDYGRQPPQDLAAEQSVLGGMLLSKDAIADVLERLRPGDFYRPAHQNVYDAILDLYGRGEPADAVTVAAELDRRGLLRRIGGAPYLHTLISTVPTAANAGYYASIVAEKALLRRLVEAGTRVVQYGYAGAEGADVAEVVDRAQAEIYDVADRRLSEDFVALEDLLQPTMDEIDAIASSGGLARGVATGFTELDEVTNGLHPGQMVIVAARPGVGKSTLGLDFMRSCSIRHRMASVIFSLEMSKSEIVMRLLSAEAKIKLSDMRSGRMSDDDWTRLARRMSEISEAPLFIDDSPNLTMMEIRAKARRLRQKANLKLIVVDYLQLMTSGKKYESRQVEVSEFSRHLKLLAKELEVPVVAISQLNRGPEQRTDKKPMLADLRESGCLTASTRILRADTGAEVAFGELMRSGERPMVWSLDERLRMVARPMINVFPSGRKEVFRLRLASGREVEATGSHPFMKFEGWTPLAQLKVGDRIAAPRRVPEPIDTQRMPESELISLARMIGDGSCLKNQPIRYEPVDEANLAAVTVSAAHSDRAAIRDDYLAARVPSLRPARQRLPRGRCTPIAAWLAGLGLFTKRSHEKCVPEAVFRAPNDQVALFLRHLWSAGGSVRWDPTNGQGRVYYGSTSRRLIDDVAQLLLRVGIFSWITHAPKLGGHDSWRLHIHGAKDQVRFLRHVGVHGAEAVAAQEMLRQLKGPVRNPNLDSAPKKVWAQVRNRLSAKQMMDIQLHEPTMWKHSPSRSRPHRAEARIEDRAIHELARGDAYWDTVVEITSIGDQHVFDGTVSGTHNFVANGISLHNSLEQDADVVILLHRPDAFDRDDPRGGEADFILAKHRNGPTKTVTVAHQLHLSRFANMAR

Protein RecA = target: T4, Protein RecA (Mycobacterium tuberculosis, UniProt P9WHJ3); assay: Fluorescence Cell-Free Homogeneous Dose Retest to Identify Inhibitors of RecA-Intein Splicing Activity. [Related pubchem assays (depositor defined):AID2097, AID2223, AID489010, AID492950]; assay type: functional
T4 sequence (P9WHJ3 whole entry): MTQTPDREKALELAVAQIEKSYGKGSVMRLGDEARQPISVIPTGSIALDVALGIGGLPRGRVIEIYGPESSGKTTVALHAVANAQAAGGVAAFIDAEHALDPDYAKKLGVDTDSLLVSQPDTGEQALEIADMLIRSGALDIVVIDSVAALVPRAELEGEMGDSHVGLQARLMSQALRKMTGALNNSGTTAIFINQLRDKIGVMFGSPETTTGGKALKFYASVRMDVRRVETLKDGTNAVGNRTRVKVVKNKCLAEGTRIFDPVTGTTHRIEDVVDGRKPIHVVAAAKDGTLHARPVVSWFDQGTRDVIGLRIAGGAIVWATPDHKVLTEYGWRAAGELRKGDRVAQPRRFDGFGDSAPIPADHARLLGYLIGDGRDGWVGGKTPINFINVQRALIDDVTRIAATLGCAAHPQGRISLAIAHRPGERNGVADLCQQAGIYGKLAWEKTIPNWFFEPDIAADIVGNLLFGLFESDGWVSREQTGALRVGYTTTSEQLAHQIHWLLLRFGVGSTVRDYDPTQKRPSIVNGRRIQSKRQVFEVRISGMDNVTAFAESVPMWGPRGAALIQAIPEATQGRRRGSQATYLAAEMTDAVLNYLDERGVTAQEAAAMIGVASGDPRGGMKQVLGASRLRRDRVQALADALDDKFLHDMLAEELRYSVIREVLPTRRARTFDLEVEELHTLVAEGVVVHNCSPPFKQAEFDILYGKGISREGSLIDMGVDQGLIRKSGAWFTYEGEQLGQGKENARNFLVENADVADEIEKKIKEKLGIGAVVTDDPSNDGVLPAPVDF

[4] = blockade of melanocortin 4 receptor signaling – cell-based, plate reader, cherry pick, counter-screen for LGR2 antagonist project, dose response (AID 743444); assay type: functional;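 also: transfected HEK 293 cells stimulated with alpha-MSH peptide; potency of inhibitors of the alpha-MSH evoked signal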
[5] = A549 cell cytotoxicity, dose response, cytotoxicity control, plate reader, cherry-pick, antagonist series (AID 743412); assay type: functional, cell-based
[6] = blockers of bursicon-stimulated LGR2 cAMP reporter – cell-based, HEK293, CRE-luciferase reporter, cherry pick, set 2, dose response (AID 743343); assay type: functional;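 also: transfected cells were stimulated with diluted bursicon conditioned medium after compound addition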
[7] = target: T5, Oxysterols receptor LXR-beta (Homo sapiens, UniProt P55055); assay type: functional, cell-based;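 also: agonist activity at LXR measured by a cell-based luminescence readout across a dose range, run as a counterscreen for daf-12 agonists; potency for activation of Gal4-LXR reporter so compounds are agonists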
T5 sequence (P55055 whole entry): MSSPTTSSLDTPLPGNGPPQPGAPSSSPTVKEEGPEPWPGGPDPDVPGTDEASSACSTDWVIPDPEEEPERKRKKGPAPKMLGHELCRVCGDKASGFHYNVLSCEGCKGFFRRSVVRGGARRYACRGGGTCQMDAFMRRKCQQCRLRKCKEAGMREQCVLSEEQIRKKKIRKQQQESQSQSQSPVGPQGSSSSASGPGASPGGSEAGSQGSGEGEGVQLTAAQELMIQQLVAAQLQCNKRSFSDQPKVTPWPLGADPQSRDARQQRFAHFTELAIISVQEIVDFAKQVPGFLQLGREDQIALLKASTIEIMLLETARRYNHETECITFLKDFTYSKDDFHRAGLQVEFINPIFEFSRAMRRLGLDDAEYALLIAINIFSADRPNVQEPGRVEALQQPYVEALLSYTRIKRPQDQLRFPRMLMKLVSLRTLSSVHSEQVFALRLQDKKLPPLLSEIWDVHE

[8] = target: Photoreceptor-specific nuclear receptor (Homo sapiens, UniProt Q9Y5X4); assay type: functional, cell-based;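 also: CHO-S cells with Gal4-NCOR and VP16-NR2E3 two-hybrid luciferase reporter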
[9] = target: T5, Oxysterols receptor LXR-beta; assay: LXR agonists, Gal4 luciferase reporter, dose response, counter-screen for ssDAF-12 agonist project, cell-based, luminescence, HEK293, S. stercoralis campaign (AID 720737); assay type: functional; conditions: read-out: IC50 (the source's name)
[10] = Luminescence-based cell-based high throughput dose response assay to identify activators of the DAF-12 from the parasite S. stercoralis (ssDAF-12).; assay type: functional
[11] = target: T6, Disintegrin and metalloproteinase domain-containing protein 17 (Homo sapiens, UniProt P78536); assay: inhibition of ADAM17 substrate cleavage – biochemical, quenched FRET substrate, counter-screen for ADAM10 exosite inhibitor project, dose response (AID 743253)
[12] = potency of ADAM10 substrate cleavage blockers – biochemical, QFRET, dose response (AID 743254);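 also: ADAM10 enzyme with the DM2 quenched FRET peptide as substrate; EDANS fluorescence gain as the protease cuts the substrate; inhibitor potency against ADAM10 proteolytic activity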
[13] = target: 72 kDa type IV collagenase (Homo sapiens, UniProt P08253); assay: Dose Response validation of uHTS RPN11 inhibitor hits using a MMP-2 Fluorescence assay.; assay type: functional
Prothrombin = Prothrombin (Bos taurus, UniProt P00735); assay: thrombin protease inhibitors – biochemical, fluorescence polarization, uHTS hits, dose response (AID 602369); assay type: functional
[14] = target: 26S proteasome non-ATPase regulatory subunit 14 (Homo sapiens, UniProt O00487); assay: inhibition of proteasome subunit RPN11 – biochemical, fluorescence polarization, uHTS hits, confirmation (AID 602368); assay type: functional
cells [15] = assay type: functional, cell-based
cells [16] = assay type: functional, cell-based; remark: listed apart in the source
[17] = target: T6, Disintegrin and metalloproteinase domain-containing protein 17; assay: exosite inhibitors of ADAM17, dose response, biochemical (AID 743260)
Cytochrome P450 3A4 = Cytochrome P450 3A4 (Homo sapiens, UniProt P08684);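 also: CYP3A4 tested as one member of a cytochrome P450 panel screen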
Cytochrome P450 2D6 = Cytochrome P450 2D6 (Homo sapiens, UniProt P10635);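 also: CYP2D6 member of a cytochrome P450 panel assay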
Cytochrome P450 1A2 = target: T7, Cytochrome P450 1A2 (Homo sapiens, UniProt P05177);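 also: PubChem cytochrome P450 panel assay, CYP1A2 panel member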
T7 sequence (P05177 whole entry): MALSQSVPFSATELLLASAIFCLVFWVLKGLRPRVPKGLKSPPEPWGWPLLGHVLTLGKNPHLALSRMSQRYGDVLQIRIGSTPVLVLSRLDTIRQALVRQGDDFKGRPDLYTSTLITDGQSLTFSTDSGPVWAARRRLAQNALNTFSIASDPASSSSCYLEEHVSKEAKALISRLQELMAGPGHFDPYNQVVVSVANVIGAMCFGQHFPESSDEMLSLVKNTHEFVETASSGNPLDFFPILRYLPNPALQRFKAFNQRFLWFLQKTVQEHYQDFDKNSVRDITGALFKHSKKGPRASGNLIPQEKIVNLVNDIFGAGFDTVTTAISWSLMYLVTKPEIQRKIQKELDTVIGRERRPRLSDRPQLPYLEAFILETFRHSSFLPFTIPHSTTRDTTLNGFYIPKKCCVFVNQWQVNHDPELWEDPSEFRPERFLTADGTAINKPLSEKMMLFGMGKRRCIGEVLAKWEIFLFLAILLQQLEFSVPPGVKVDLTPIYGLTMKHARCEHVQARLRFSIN

T6 sequence (P78536 whole entry, the tested form may be a part): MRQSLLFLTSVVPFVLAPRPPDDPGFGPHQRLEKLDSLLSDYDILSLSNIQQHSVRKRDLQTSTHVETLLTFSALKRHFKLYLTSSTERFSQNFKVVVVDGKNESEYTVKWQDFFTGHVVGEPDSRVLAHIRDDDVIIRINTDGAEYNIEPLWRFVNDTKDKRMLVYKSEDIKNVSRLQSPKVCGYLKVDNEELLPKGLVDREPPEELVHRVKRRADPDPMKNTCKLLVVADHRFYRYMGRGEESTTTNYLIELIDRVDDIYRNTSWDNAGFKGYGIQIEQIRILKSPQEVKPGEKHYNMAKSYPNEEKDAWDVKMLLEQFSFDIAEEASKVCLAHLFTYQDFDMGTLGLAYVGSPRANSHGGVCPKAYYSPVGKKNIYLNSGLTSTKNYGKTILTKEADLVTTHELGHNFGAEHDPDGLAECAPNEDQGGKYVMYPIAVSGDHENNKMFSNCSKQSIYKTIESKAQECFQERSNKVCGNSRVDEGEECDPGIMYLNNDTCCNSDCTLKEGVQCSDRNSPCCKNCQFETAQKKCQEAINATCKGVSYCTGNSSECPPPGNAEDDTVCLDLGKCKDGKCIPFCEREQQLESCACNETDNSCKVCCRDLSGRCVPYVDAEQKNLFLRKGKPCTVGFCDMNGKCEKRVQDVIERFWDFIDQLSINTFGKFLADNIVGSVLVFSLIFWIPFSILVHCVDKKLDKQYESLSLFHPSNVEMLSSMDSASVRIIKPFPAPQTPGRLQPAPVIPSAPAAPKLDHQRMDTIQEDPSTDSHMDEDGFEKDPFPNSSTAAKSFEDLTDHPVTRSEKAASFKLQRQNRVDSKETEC
Chain of 26S proteasome non-ATPase regulatory subunit 14 (O00487 whole entry): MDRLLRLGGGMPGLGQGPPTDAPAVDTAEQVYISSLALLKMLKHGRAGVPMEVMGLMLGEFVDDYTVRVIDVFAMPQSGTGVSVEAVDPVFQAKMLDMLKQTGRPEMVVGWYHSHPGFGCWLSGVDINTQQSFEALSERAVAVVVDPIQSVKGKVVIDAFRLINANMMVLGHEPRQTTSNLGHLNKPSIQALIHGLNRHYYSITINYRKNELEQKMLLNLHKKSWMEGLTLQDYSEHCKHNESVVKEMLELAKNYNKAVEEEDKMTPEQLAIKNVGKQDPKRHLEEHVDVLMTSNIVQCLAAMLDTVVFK
Chain of Photoreceptor-specific nuclear receptor (Q9Y5X4 whole entry, the tested form may be a part): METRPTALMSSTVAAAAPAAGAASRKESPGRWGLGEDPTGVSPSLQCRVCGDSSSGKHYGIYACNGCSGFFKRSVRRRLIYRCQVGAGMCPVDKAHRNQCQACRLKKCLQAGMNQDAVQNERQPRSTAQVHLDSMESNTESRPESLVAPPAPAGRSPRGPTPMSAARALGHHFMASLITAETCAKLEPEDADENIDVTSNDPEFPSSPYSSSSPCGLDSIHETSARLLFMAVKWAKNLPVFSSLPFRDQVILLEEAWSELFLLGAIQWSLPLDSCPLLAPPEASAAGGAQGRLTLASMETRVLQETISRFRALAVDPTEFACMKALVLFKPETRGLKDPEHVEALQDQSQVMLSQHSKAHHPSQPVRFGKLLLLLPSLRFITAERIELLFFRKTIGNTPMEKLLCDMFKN
Chain of 72 kDa type IV collagenase (P08253 whole entry): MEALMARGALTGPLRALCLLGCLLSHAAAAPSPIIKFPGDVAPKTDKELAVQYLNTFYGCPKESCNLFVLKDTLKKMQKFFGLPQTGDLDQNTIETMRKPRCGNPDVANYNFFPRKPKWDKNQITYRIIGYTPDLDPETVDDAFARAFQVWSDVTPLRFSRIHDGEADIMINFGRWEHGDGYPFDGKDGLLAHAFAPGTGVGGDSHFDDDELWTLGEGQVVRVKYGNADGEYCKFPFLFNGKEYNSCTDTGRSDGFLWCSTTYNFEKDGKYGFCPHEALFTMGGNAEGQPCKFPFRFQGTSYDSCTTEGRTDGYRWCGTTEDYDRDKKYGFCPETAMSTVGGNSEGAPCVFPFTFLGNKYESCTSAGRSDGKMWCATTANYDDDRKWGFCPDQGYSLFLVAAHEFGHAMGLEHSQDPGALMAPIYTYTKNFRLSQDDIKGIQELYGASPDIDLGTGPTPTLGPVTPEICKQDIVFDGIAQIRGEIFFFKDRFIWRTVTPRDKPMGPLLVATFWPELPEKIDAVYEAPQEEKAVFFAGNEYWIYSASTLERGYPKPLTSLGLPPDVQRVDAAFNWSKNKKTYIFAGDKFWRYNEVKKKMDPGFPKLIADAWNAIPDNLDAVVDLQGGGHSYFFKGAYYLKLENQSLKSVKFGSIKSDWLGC
Chain of Cytochrome P450 3A4 (P08684 whole entry): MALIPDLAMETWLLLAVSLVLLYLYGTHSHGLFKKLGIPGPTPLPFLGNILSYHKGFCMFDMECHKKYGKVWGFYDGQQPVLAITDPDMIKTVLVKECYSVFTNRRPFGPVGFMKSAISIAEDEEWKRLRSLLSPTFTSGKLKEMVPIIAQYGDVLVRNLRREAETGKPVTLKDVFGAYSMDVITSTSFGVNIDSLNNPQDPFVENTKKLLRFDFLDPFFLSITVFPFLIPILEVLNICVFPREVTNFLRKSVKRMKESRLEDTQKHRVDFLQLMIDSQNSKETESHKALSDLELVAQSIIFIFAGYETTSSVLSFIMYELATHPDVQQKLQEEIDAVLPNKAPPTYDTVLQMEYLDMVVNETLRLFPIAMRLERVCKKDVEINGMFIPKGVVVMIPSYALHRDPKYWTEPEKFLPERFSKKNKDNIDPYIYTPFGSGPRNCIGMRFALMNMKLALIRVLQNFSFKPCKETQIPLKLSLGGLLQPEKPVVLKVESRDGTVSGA
Chain of Cytochrome P450 2D6 (P10635 whole entry): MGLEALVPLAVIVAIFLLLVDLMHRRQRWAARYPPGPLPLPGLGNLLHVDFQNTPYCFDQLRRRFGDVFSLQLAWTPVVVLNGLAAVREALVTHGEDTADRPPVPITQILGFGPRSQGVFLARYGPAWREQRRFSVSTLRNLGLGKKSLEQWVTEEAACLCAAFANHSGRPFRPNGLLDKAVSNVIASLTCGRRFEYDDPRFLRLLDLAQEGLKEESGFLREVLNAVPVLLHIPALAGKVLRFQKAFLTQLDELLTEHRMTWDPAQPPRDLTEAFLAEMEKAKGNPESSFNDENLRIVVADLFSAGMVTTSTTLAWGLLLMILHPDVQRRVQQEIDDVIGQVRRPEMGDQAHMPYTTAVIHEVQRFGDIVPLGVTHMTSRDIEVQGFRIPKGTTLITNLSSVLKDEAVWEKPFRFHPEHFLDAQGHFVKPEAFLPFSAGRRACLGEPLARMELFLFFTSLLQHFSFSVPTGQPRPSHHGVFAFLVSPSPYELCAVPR

O=C(CSc1nnc(-c2ccccc2)n1-c1ccc(Cl)cc1)NNC(=S)Nc1ccccc1
IC50 [1]: > 122 µM (inactive)

CCCOc1ccc2c(=O)c(N3C(=O)c4ccccc4C3=O)c(C)oc2c1
Ki (fMet-Leu-Phe receptor): > 66.7 µM (inactive)

COc1ccccc1-c1c(C)oc2cc(OC(=O)c3ccco3)ccc2c1=O
IC50 [2]: 1.55 µM (active) | AC50 [3]: 21.8 µM (active) | Ki (fMet-Leu-Phe receptor): 9 µM (active) | EC50 (Protein RecA): 23.8 µM (active)

CC(C)(C)n1cc(C(=O)c2ccc3ccccc3c2O)cn1
AC50 [4]: 14.3 µM (active) | AC50 [5]: > 52 µM (inactive) | AC50 [6]: 6.45 µM (active)

Cc1ccnc(NC(=O)C2CCN(S(=O)(=O)c3c(C)c(C)cc(C)c3C)CC2)c1
EC50 [7]: > 67.6 µM (inactive) | IC50 [8]: 1.85 µM (active)

O=C1/C(=C\c2cccs2)Sc2ccc3ccccc3c21
EC50 [9]: > 67.6 µM (inactive) | EC50 [7]: > 67.5 µM (inactive) | IC50 [10]: > 67.6 µM (inactive)

COC(=O)c1ccc(C2C(C(=O)c3ccc(OC)cc3)=C(O)C(=O)N2Cc2ccco2)cc1 (stereo not drawn)
Ki (fMet-Leu-Phe receptor): 43 µM (inactive)

C=CC[C@@H](CC(=O)N(CCO)Cc1ccccc1)C(=O)N[C@H](COC(=O)[C@@H](CC=C)Cc1ccc(F)cc1)Cc1c[nH]c2ccccc12
IC50 [11]: > 69.5 µM (inactive) | IC50 [12]: > 69.5 µM (inactive)

COCC/N=c1\scc(-c2cc(OC)c(OC)c(OC)c2)n1/N=C/c1c(C)[nH]c2ccccc12
IC50 [11]: > 69.5 µM (inactive) | IC50 [13]: > 100 µM (inactive) | IC50 (Prothrombin): 57.9 µM (active) | IC50 [14]: 76.9 µM (active) | EC50 (cells [15]): > 350 µM (not active) | IC50 [12]: > 69.5 µM (inactive) | EC50 (cells [16]): > 350 µM (not active) | IC50 [17]: > 69.5 µM (inactive)

Cc1ccc(-c2nnc(SCC(=O)NN=C(S)Nc3ccccc3)n2C2CCCCC2)cc1
IC50 [1]: > 122 µM (inactive)

O=[N+]([O-])c1ccccc1/C=N/n1c(S)nnc1C1CCCCC1
IC50 [1]: > 122 µM (inactive)

CCc1ccc(/C=c2\s/c(=C\C(=O)C(C)(C)C)[nH]c2=O)cc1
IC50 [11]: > 69.5 µM (inactive) | IC50 [12]: > 69.5 µM (inactive)

NC(=Nc1ccccc1)NC(=O)c1nc(Cl)c(N)nc1N [PHENAMIL METHANESULFONATE]
AC50 (Cytochrome P450 3A4): 39.8 µM (inconclusive) | AC50 (Cytochrome P450 2D6): 31.6 µM (inconclusive) | EC50 [7]: > 67.5 µM (inactive) | AC50 (Cytochrome P450 1A2): 12.6 µM (inconclusive)

— ChEMBL document CHEMBL1201862, “PubChem BioAssay data set” (2004)
